Read-outs that look alike come from different tables or passages of the source.
Key:
JAK2 = target: T1, JAK2 (Homo sapiens, UniProt O60674); experiment: Recombinant Human JAK2 Kinase Assay (TRF); format: biochemical; details: read-out: JAK2 Potency
T1 construct: host or cells: baculovirus expression system
Method in brief: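 Baculovirus-expressed JAK2 (15 ng/ml) phosphorylated a biotinylated 15-mer peptide captured on Neutravidin-coated plates, in 20 mM HEPES pH 7.2 with 0.2 μM ATP, 1 mM MnCl2, 0.1% BSA and 2.5% DMSO. Reaction ran 20 min at room temperature; phosphopeptide was detected by time-resolved fluorescence with Eu-N1-labelled PY100 antibody.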

ALK = target: T2, ALK (Homo sapiens, UniProt Q9UM73); experiment: ALK Kinase Assay (ELISA/TRF, PLC-γ substrate); format: biochemical; details: read-out: ALK Potency
T2 construct: host or cells: baculovirus expression system
T2 sequence (Q9UM73 19-1620): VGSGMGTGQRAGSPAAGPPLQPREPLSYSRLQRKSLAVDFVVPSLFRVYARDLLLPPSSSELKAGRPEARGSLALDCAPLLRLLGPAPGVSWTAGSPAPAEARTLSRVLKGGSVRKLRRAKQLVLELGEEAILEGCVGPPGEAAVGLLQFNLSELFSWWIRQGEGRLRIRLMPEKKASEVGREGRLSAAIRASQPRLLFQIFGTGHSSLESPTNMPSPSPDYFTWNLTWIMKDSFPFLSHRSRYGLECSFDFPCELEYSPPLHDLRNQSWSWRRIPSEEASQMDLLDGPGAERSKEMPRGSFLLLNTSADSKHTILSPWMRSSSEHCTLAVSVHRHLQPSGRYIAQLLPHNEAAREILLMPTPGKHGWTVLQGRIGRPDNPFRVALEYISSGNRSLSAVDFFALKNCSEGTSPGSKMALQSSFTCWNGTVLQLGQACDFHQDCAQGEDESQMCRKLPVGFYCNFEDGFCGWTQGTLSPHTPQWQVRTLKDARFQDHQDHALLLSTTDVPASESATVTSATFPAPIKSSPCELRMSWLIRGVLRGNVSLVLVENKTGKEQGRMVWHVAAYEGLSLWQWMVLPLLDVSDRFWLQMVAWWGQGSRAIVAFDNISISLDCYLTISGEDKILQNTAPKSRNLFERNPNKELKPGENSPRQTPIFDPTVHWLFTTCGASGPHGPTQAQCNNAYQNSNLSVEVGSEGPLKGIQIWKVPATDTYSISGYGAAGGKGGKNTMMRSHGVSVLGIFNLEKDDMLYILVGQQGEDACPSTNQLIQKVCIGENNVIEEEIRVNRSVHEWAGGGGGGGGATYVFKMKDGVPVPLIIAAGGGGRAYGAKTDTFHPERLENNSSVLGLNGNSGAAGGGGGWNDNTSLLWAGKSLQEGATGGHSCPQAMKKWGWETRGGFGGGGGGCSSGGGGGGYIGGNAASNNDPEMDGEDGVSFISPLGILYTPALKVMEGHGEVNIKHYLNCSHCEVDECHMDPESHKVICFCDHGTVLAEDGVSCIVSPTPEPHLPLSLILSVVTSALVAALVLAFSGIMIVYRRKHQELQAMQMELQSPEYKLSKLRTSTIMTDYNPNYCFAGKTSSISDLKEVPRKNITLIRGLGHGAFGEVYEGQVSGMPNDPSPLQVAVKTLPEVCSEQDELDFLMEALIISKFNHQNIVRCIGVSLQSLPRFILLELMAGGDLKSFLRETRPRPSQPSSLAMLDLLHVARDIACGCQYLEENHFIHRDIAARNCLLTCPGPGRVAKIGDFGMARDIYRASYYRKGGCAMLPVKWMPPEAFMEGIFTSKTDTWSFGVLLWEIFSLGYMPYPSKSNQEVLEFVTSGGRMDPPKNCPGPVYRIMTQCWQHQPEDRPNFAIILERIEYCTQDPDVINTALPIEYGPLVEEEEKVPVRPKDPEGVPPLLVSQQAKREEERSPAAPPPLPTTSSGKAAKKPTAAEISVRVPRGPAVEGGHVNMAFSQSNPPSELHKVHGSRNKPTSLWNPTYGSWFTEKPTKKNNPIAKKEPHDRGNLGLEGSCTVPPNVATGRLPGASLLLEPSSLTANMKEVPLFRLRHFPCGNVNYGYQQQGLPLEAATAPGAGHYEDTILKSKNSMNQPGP
Method in brief: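 Time-resolved fluorescence ELISA using Eu-N1 PT66 antibody to detect phosphorylated PLC-γ (coated at 10 μg/mL). Enzyme at 30 ng/ml ALK; 15 min incubation, 37° C.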

[1] = JAK2 kinase inhibition, 0.2 μM ATP
[2] = ALK kinase inhibition, 1 μM ATP

T1 sequence (O60674 whole entry): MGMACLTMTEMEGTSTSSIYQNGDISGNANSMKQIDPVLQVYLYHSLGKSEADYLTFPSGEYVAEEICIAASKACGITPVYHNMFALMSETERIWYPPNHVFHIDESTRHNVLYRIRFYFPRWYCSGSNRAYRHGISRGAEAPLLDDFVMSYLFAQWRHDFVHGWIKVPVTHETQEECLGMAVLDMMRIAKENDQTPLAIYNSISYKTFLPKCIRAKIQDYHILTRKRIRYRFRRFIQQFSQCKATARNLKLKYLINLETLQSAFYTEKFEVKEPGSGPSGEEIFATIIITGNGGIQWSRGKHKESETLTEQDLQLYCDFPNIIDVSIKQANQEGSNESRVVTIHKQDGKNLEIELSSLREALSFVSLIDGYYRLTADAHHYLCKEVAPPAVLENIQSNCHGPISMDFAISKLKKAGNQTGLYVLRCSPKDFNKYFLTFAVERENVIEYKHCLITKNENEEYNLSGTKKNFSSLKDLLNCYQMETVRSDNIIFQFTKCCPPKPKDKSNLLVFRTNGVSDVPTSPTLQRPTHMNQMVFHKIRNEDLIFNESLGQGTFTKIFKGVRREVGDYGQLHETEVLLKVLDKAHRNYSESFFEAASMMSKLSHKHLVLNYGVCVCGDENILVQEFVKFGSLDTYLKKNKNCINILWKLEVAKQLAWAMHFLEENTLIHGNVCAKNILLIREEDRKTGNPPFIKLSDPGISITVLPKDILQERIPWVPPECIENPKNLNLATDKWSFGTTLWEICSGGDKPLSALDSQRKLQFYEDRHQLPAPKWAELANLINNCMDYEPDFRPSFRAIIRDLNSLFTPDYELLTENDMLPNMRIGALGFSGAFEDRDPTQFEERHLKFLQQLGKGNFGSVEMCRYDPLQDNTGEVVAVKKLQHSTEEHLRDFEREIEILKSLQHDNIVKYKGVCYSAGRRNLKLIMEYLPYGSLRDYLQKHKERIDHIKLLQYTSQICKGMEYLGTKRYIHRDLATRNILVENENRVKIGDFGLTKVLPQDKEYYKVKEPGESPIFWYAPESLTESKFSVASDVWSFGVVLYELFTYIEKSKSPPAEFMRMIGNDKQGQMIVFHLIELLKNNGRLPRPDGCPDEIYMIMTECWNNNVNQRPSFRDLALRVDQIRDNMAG

With `COc1cc(N2CCC(N3CCOCC3)CC2)ccc1Nc1ncc2ccc(-c3ccccc3N(CCF)S(C)(=O)=O)n2n1` [Example 1463, N-(2-Fluoro-ethyl)-N-(2-{2-[2-methoxy-4-(4-morpholin-4-yl-piperidin-1-yl)-phenylamino]-pyrrolo[2,1-f][1,2,4]triazin-7-yl}-phenyl)-methanesulfonamide] the IC50 (JAK2; JAK2 Kinase Inhibition) was < 100 nM and the IC50 (ALK; ALK Kinase Inhibition) was < 100 nM.

`CN1CCN(Cc2nc3ccc(Nc4ncc5ccc(-c6ccccc6N(C)S(C)(=O)=O)n5n4)cc3[nH]2)CC1` [Example 1525, N-Methyl-N-(2-{2-[2-(4-methyl-piperazin-1-ylmethyl)-3H-benzimidazol-5-ylamino]-pyrrolo[2,1-f][1,2,4]triazin-7-yl}-phenyl)-methanesulfonamide] was tested, and the IC50 (JAK2; JAK2 Kinase Inhibition) was < 100 nM and the IC50 (ALK; ALK Kinase Inhibition) was 100 to 1000 nM.

In the case of `COc1cc(CN2CCN(CC(O)CF)CC2)ccc1Nc1ncc2ccc(-c3ccccc3OC)n2n1` (centres unmarked) [Example 1243, 1-Fluoro-3-(4-{3-methoxy-4-[7-(2-methoxy-phenyl)-pyrrolo[2,1-f][1,2,4]triazin-2-ylamino]-benzyl}-piperazin-1-yl)-propan-2-ol], the IC50 (JAK2; [1]) is reported as 100 to 1000 nM and the IC50 (ALK; [2]) is reported as < 100 nM.

With `COc1ccc(-c2ccc3cnc(Nc4ccn(CC(=O)N5CCOCC5)n4)nn23)cn1` [Example 1112, 2-{3-[7-(6-Methoxy-pyridin-3-yl)-pyrrolo[2,1-f][1,2,4]triazin-2-ylamino]-pyrazol-1-yl}-1-morpholin-4-yl-ethanone] the IC50 (JAK2; [1]) was < 100 nM and the IC50 (ALK; [2]) was > 10000 nM.

`Cn1cc(-c2ccc3cnc(Nc4cccc(OCCN5CCOCC5)c4)nn23)cn1` [Example 1004, [7-(1-Methyl-1H-pyrazol-4-yl)-pyrrolo[2,1-f][1,2,4]triazin-2-yl]-[3-(2-morpholin-4-yl-ethoxy)-phenyl]-amine] was tested, and the IC50 (JAK2; [1]) was < 100 nM and the IC50 (ALK; [2]) was 1000 to 10000 nM.

`CN1CCC(C(=O)N2CCC(c3ccc(Nc4ncc5ccc(-c6ccccc6N(C)S(C)(=O)=O)n5n4)cc3)CC2)CC1` [Example 502, N-Methyl-N-[2-(2-{4-[1-(1-methyl-piperidine-4-carbonyl)-piperidin-4-yl]-phenylamino}-pyrrolo[2,1-f][1,2,4]triazin-7-yl)-phenyl]-methanesulfonamide] was tested, and the IC50 (JAK2; [1]) was < 100 nM and the IC50 (ALK; [2]) was < 100 nM.

`COc1cc(C2CCN(CC(N)=O)CC2)ccc1Nc1ncc2ccc(-c3cc(F)ccc3N(C)S(C)(=O)=O)n2n1` [Example 1282, 2-[4-(4-{7-[5-Fluoro-2-(methanesulfonyl-methyl-amino)-phenyl]-pyrrolo[2,1-f][1,2,4]triazin-2-ylamino}-3-methoxy-phenyl)-piperidin-1-yl]-acetamide] was tested, and the IC50 (JAK2; [1]) was 1000 to 10000 nM and the IC50 (ALK; [2]) was < 100 nM.

With `COc1cc(Nc2ncc3ccc(-c4cccc(Cl)c4)n3n2)ccc1N1CCOCC1` [Example 65, [7-(3-Chloro-phenyl)-pyrrolo[2,1-f][1,2,4]triazin-2-yl]-(3-methoxy-4-morpholin-4-yl-phenyl)-amine] the IC50 (JAK2; JAK2 Kinase Inhibition) was < 100 nM and the IC50 (ALK; ALK Kinase Inhibition) was 100 to 1000 nM.

`COc1ccc(-c2ccc3cnc(Nc4ccc5c(c4)COCCN5C)nn23)cn1` [Example 637, [7-(6-Methoxy-pyridin-3-yl)-pyrrolo[2,1-f][1,2,4]triazin-2-yl]-(1-methyl-1,2,3,5-tetrahydro-benzo[e][1,4]oxazepin-7-yl)-amine] was tested, and the IC50 (JAK2; [1]) was < 100 nM and the IC50 (ALK; [2]) was 1000 to 10000 nM.

`CC(C)(C)NS(=O)(=O)c1cccc(-c2ccc3cnc(Nc4ccc(CN5CCCC5)cc4)nn23)c1` [Example 1429, N-tert-Butyl-3-[2-(4-pyrrolidin-1-ylmethyl-phenylamino)-pyrrolo[2,1-f][1,2,4]triazin-7-yl]-benzenesulfonamide] was tested, and the IC50 (JAK2; JAK2 Kinase Inhibition) was < 100 nM and the IC50 (ALK; ALK Kinase Inhibition) was 100 to 1000 nM.

With `CN1CCOc2ccc(Nc3ncc4ccc(-c5cccc(S(=O)(=O)NC(C)(C)C)c5)n4n3)cc21` [Example 650, N-tert-Butyl-3-[2-(4-methyl-3,4-dihydro-2H-benzo[1,4]oxazin-6-ylamino)-pyrrolo[2,1-f][1,2,4]triazin-7-yl]-benzenesulfonamide] the IC50 (JAK2; [1]) was < 100 nM and the IC50 (ALK; [2]) was 100 to 1000 nM.

For `CN1CCOCc2cc(Nc3ncc4ccc(-c5cccc(NS(C)(=O)=O)c5)n4n3)ccc21` [Example 619, N-{3-[2-(1-Methyl-1,2,3,5-tetrahydro-benzo[e][1,4]oxazepin-7-ylamino)-pyrrolo[2,1-f][1,2,4]triazin-7-yl]-phenyl}-methanesulfonamide], the IC50 (JAK2; [1]) was < 100 nM and the IC50 (ALK; [2]) was 100 to 1000 nM.

With `COc1ccc(-c2ccc3cnc(Nc4ccc(C5CN(C)CCN5C)cc4)nn23)cn1` (centres unmarked) [Example 1530, [4-(1,4-Dimethyl-piperazin-2-yl)-phenyl]-[7-(6-methoxy-pyridin-3-yl)-pyrrolo[2,1-f][1,2,4]triazin-2-yl]-amine] the IC50 (JAK2; JAK2 Kinase Inhibition) was < 100 nM and the IC50 (ALK; ALK Kinase Inhibition) was 100 to 1000 nM.

In the case of `COc1cc([C@@H]2CCN(CC(N)=O)C[C@@H]2O)ccc1Nc1ncc2ccc(-c3ccccc3N(C)S(C)(=O)=O)n2n1` (racemic) [Example 842, (±)-2-[(3R,4S)-3-Hydroxy-4-(4-{7-[2-(methanesulfonyl-methyl-amino)-phenyl]-pyrrolo[2,1-f][1,2,4]triazin-2-ylamino}-3-methoxy-phenyl)-piperidin-1-yl]-acetamide], the IC50 (JAK2; [1]) is reported as 100 to 1000 nM and the IC50 (ALK; [2]) is reported as < 100 nM.

For `CN1CCN(C)C(c2cccc(Nc3ncc4ccc(-c5cccc(S(C)(=O)=O)c5)n4n3)c2)C1=O` (centres unmarked) [Example 1080, 3-{3-[7-(3-Methanesulfonyl-phenyl)-pyrrolo[2,1-f][1,2,4]triazin-2-ylamino]-phenyl}-1,4-dimethyl-piperazin-2-one], the IC50 (JAK2; [1]) was < 100 nM and the IC50 (ALK; [2]) was 1000 to 10000 nM.

With `CN1CCN(c2ccc(Nc3ncc4ccc(CNc5ccccc5)n4n3)cc2)CC1` [Example 363, [4-(4-Methyl-piperazin-1-yl)-phenyl]-(7-phenylaminomethyl-pyrrolo[2,1-f][1,2,4]triazin-2-yl)-amine] the IC50 (JAK2; JAK2 Kinase Inhibition) was < 100 nM and the IC50 (ALK; ALK Kinase Inhibition) was 1000 to 10000 nM.

With `CS(=O)(=O)Nc1cccc(-c2ccc3cnc(Nc4ccc(N5CCN(CCO)CC5)cc4)nn23)c1` [Example 380, N-[3-(2-{4-[4-(2-Hydroxy-ethyl)-piperazin-1-yl]-phenylamino}-pyrrolo[2,1-f][1,2,4]triazin-7-yl)-phenyl]-methanesulfonamide] the IC50 (JAK2; JAK2 Kinase Inhibition) was < 100 nM and the IC50 (ALK; ALK Kinase Inhibition) was < 100 nM.

With `CN1CCC(c2ccc(Nc3ncc4ccc(-c5ccccc5OCC(N)=O)n4n3)cc2)CC1` [Example 1409, 2-(2-{2-[4-(1-Methyl-piperidin-4-yl)-phenylamino]-pyrrolo[2,1-f][1,2,4]triazin-7-yl}-phenoxy)-acetamide] the IC50 (JAK2; JAK2 Kinase Inhibition) was < 100 nM and the IC50 (ALK; ALK Kinase Inhibition) was 100 to 1000 nM.

In the case of `COc1cc(N2CCC[C@H](C(=O)N3CCN(C)CC3)C2)ccc1Nc1ncc2ccc(-c3ccccc3OC)n2n1` [Example 461, ((S)-1-{3-Methoxy-4-[7-(2-methoxy-phenyl)-pyrrolo[2,1-f][1,2,4]triazin-2-ylamino]-phenyl}-piperidin-3-yl)-(4-methyl-piperazin-1-yl)-methanone], the IC50 (JAK2; JAK2 Kinase Inhibition) is reported as 100 to 1000 nM and the IC50 (ALK; ALK Kinase Inhibition) is reported as < 100 nM.

In the case of `c1ccc2ncc(-c3ccc4cnc(Nc5ccc(N6CCOCC6)cc5)nn34)cc2c1` [Example 1033, (4-Morpholin-4-yl-phenyl)-(7-quinolin-3-yl-pyrrolo[2,1-f][1,2,4]triazin-2-yl)-amine], the IC50 (JAK2; [1]) is reported as < 100 nM and the IC50 (ALK; [2]) is reported as 1000 to 10000 nM.

With `COCC(C)OC(=O)COc1ccccc1-c1ccc2cnc(Nc3ccc(N4CCN(C)CC4)c(F)c3)nn12` (centres unmarked) [Example 1397, (2-{2-[3-Fluoro-4-(4-methyl-piperazin-1-yl)-phenylamino]-pyrrolo[2,1-f][1,2,4]triazin-7-yl}-phenoxy)-acetic acid 2-methoxy-1-methyl-ethyl ester] the IC50 (JAK2; JAK2 Kinase Inhibition) was < 100 nM and the IC50 (ALK; ALK Kinase Inhibition) was 1000 to 10000 nM.

In the case of `CC(=O)N1CCCC(C)(C)c2ccc(Nc3ncc4ccc(-c5ccccc5N(C)S(C)(=O)=O)n4n3)cc21` [Example 1366, N-{2-[2-(1-Acetyl-5,5-dimethyl-2,3,4,5-tetrahydro-1H-benzo[b]azepin-8-ylamino)-pyrrolo[2,1-f][1,2,4]triazin-7-yl]-phenyl}-N-methyl-methanesulfonamide], the IC50 (JAK2; JAK2 Kinase Inhibition) is reported as < 100 nM and the IC50 (ALK; ALK Kinase Inhibition) is reported as 100 to 1000 nM.

In the case of `CN1CCN(c2ccc(Nc3ncc4ccc(-c5cccc6c5OCCO6)n4n3)cc2)CC1` [Example 548, [7-(2,3-Dihydro-1,4-benzodioxin-5-yl)-pyrrolo[2,1-f][1,2,4]triazin-2-yl]-[4-(4-methyl-piperazin-1-yl)-phenyl]-amine], the IC50 (JAK2; [1]) is reported as < 100 nM and the IC50 (ALK; [2]) is reported as < 100 nM.

With `CC(=O)c1ccccc1-c1ccc2cnc(Nc3ccc(N4CCN(C)CC4)cc3)nn12` [Example 402, 1-(2-{2-[4-(4-Methyl-piperazin-1-yl)-phenylamino]-pyrrolo[2,1-f][1,2,4]triazin-7-yl}-phenyl)-ethanone] the IC50 (JAK2; JAK2 Kinase Inhibition) was < 100 nM and the IC50 (ALK; ALK Kinase Inhibition) was 100 to 1000 nM.

For `CC(=O)Nc1cccc(Nc2ncc3ccc(-c4cccc(C(=O)NC(C)(C)C)c4)n3n2)c1` [Example 886, 3-[2-(3-Acetylamino-phenylamino)-pyrrolo[2,1-f][1,2,4]triazin-7-yl]-N-tert-butyl-benzamide], the IC50 (JAK2; [1]) was < 100 nM and the IC50 (ALK; [2]) was 1000 to 10000 nM.

With `COc1ccc(Nc2ncc3ccc(-c4cccnc4)n3n2)cc1N1CCOCC1` [Example 396, (4-Methoxy-3-morpholin-4-yl-phenyl)-(7-pyridin-3-yl-pyrrolo[2,1-f][1,2,4]triazin-2-yl)-amine] the IC50 (JAK2; JAK2 Kinase Inhibition) was < 100 nM and the IC50 (ALK; ALK Kinase Inhibition) was 100 to 1000 nM.

With `COc1cccc(-c2ccc3cnc(Nc4ccc(N5CCOCC5)cc4)nn23)c1` [Example 422, [7-(3-Methoxy-phenyl)-pyrrolo[2,1-f][1,2,4]triazin-2-yl]-(4-morpholin-4-yl-phenyl)-amine] the IC50 (JAK2; JAK2 Kinase Inhibition) was < 100 nM and the IC50 (ALK; ALK Kinase Inhibition) was > 10000 nM.

For `OCC1CCN(c2ccc(Nc3ncc4ccc(-c5cccc(Cl)c5)n4n3)cc2)CC1` [Example 1133, (1-{4-[7-(3-Chloro-phenyl)-pyrrolo[2,1-f][1,2,4]triazin-2-ylamino]-phenyl}-piperidin-4-yl)-methanol], the IC50 (JAK2; [1]) was < 100 nM and the IC50 (ALK; [2]) was 100 to 1000 nM.

Reference: US8471005B2 (Cephalon, Inc., priority 2008, dated 2013)
